The test system of the test is AM2.2 cells FAP-GPR32, fluorogen binding, flow cytometry MCF. The test can be described thus: interference with FAP fluorogen signal – AM2.2 cells, flow cytometry, powder set 4, counter-screen for beta2AR agonist internalization project, dose response (AID 651875). (Flow cytometry measures light scatter and fluorescence of single cells or particles in a stream.)

The EC50 is the midpoint of the concentration-response curve. `O=C(CN(Cc1ccccc1)S(=O)(=O)c1ccc(Cl)cc1)N1CCN(c2ccccn2)CC1`: the EC50 was 316 nM.

As to `O=C(C1CCC(=O)N1S(=O)(=O)c1ccccc1)N1CCN(c2ccccn2)CC1` (stereo not given), the EC50 was 49.6 nM.

`COc1ccccc1N1CCN(C(=O)CN(C)S(=O)(=O)c2ccc(C)cc2)CC1`: the EC50 was 974 nM.

`Cc1ccc(S(=O)(=O)N(C)CC(=O)N2CCN(c3ccccn3)CC2)cc1`: the EC50 is 3.7 nM.

For the molecule `CC(=O)Nc1ccc(S(=O)(=O)N2CCCCC2c2cccnc2)cc1` (stereo not given), the EC50 is 15.6 nM.

Values taken from PubChem BioAssay AID651875 (NMMLSC, 2012).
